Read-outs that look alike come from different tables or passages of the source.
Assays:
[1] = cited from earlier work
SSTR2 Y302A = biological target: T1, SSTR2 Y302A (Homo sapiens, UniProt P30874, Y302A); test: Intracellular Ca2+ mobilization signaling assay, SSTR2 Y302A mutant; assay type: cell-based; settings: read-out: Ca2+ Emax
T1 construct: Flag; expressed in transfected cells; host or cells: 293 T cells (pcDNA3.1, co-transfected with Gqi9)
Protocol: (§1) SSTR2 (wild-type or mutant) and Gqi9 cloned in pcDNA3.1 vector were co-transfected into 293 T cells at a ratio of 2:1 with Lipo3000. After 24 h, the cells were plated in poly-D-lysine-coated 96-well plates. After cells were washed with calcium buffer (HBSS buffer supplemented with 0.1% BSA, 2.5 mM probenecid, pH 7.4), Fluo4 AM was added and incubated for 50 min in a 37 °C incubator. After washing with calcium buffer, 50 μL calcium buffer was added to each well. Fluorescence intensities were recorded simultaneously from all the wells by a FLIPR. Plates were illuminated at 488 nm and fluorescence emission was recorded at 540 nm. The fluorescence intensity was measured at 1-s intervals for 410 s. This procedure was followed by the addition of 50 μL agonist. Data were normalized to the baseline response of the ligand. Data were analyzed using nonlinear regression in GraphPad Prism software 9.0.

SSTR2 F208A = biological target: T2, SSTR2 F208A (Homo sapiens, UniProt P30874, F208A); test: Intracellular Ca2+ mobilization signaling assay, SSTR2 F208A mutant; assay type: cell-based; settings: read-out: Ca2+ Emax
T2 construct: Flag; expressed in transfected cells; host or cells: 293 T cells (pcDNA3.1, co-transfected with Gqi9)
Protocol: as §1

SSTR2 F272A = biological target: T3, SSTR2 F272A (Homo sapiens, UniProt P30874, F272A); test: Intracellular Ca2+ mobilization signaling assay, SSTR2 F272A mutant; assay type: cell-based; settings: percentage of wild-type SSTR2 response
T3 construct: Flag; expressed in transfected cells; host or cells: 293 T cells (pcDNA3.1, co-transfected with Gqi9)
Protocol: as §1

SSTR2-Q126A = biological target: T4, SSTR2-Q126A (Homo sapiens, UniProt P30874, Q126A); test: Intracellular Ca2+ mobilization signaling assay, SSTR2 Q126A mutant; assay type: cell-based; settings: read-out: Ca2+ Emax
T4 construct: Flag; expressed in transfected cells; host or cells: 293 T cells (pcDNA3.1, co-transfected with Gqi9)
Protocol: as §1

SSTR2-Q102S = biological target: T5, SSTR2-Q102S (Homo sapiens, UniProt P30874, Q102S); test: Intracellular Ca2+ mobilization signaling assay, SSTR2 Q102S mutant; assay type: cell-based; settings: for Emax: read-out: Ca2+ Emax
T5 construct: Flag; expressed in transfected cells; host or cells: 293 T cells (pcDNA3.1, co-transfected with Gqi9)
Protocol: as §1

SSTR2 Q102A = biological target: T6, SSTR2 Q102A (Homo sapiens, UniProt P30874, Q102A); test: Intracellular Ca2+ mobilization signaling assay, SSTR2 Q102A mutant; assay type: cell-based; settings: for Emax: read-out: Ca2+ Emax
T6 construct: Flag; expressed in transfected cells; host or cells: 293 T cells (pcDNA3.1, co-transfected with Gqi9)
Protocol: as §1

SSTR2 N276A = biological target: T7, SSTR2 N276A (Homo sapiens, UniProt P30874, N276A); test: Intracellular Ca2+ mobilization signaling assay, SSTR2 N276A mutant; assay type: cell-based; settings: read-out: Ca2+ Emax
T7 construct: Flag; expressed in transfected cells; host or cells: 293 T cells (pcDNA3.1, co-transfected with Gqi9)
Protocol: as §1

SSTR2 D122A = biological target: T8, SSTR2 D122A (Homo sapiens, UniProt P30874, D122A); test: Intracellular Ca2+ mobilization signaling assay, SSTR2 D122A mutant; assay type: cell-based; settings: read-out: Ca2+ Emax
T8 construct: Flag; expressed in transfected cells; host or cells: 293 T cells (pcDNA3.1, co-transfected with Gqi9)
Protocol: as §1

SSTR2 F294S = biological target: T9, SSTR2 F294S (Homo sapiens, UniProt P30874, F294S); test: Intracellular Ca2+ mobilization signaling assay, SSTR2 F294S mutant; assay type: cell-based; settings: read-out: Ca2+ Emax
T9 construct: Flag; expressed in transfected cells; host or cells: 293 T cells (pcDNA3.1, co-transfected with Gqi9)
Protocol: as §1

SSTR2 (wild-type) = biological target: T10, SSTR2 (wild-type) (Homo sapiens, UniProt P30874); test: Intracellular Ca2+ mobilization signaling assay, wild-type SSTR2; assay type: cell-based
T10 construct: Flag; expressed in transfected cells; host or cells: 293 T cells (pcDNA3.1, co-transfected with Gqi9)
Protocol: as §1

SSTR2(1-359)-Largebit = biological target: T11, SSTR2(1-359)-Largebit (Homo sapiens, UniProt P30874); test: Intracellular Ca2+ mobilization signaling assay, SSTR2(1-359)-Largebit construct; assay type: cell-based; settings: maximal response as percentage of wild-type SSTR2 response
T11 construct: SSTR2(1-359)-; Flag; expressed in transfected cells; host or cells: 293 T cells (pcDNA3.1, co-transfected with Gqi9)
Protocol: as §1

SSTR1 = SSTR1 (all five SSTRs); cited from earlier work
SSTR3 = SSTR3 (all five SSTRs); cited from earlier work
SSTR2 = SSTR2 (all five SSTRs); cited from earlier work
SSTR4 = SSTR4 (all five SSTRs); cited from earlier work
SSTR5 = SSTR5 (all five SSTRs); cited from earlier work
[2] = biological target: SSTR2-Q102^2.63 substituted with alanine (human) (UniProt P30874)
[3] = biological target: wild-type SSTR2 (pcDNA3.1, functional assays) (human) (UniProt P30874)
SSTR2-Q126A (human) = SSTR2-Q126A (human) (UniProt P30874)
Chain of SSTR2-Q126A (human) (P30874 whole entry Q126A): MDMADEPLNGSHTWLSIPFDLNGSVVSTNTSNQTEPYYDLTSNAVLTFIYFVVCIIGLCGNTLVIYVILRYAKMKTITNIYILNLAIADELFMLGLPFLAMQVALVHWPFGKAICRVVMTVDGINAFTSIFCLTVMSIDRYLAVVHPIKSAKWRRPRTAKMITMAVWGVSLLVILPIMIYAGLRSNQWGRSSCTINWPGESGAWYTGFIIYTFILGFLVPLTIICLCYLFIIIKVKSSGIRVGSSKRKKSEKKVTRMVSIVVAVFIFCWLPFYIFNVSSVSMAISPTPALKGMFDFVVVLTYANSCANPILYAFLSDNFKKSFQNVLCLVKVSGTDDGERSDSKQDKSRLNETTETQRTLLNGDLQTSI

T5 sequence (P30874 whole entry Q102S): as the sequence (P30874 whole entry Q126A) above, with Q102S, A126Q counted along it
T6 sequence (P30874 whole entry Q102A): as the sequence (P30874 whole entry Q126A) above, with Q102A, A126Q counted along it
T8 sequence (P30874 whole entry D122A): as the sequence (P30874 whole entry Q126A) above, with D122A, A126Q counted along it
T4 sequence (P30874 whole entry Q126A): as the sequence (P30874 whole entry Q126A) above
T2 sequence (P30874 whole entry F208A): as the sequence (P30874 whole entry Q126A) above, with A126Q, F208A counted along it
T7 sequence (P30874 whole entry N276A): as the sequence (P30874 whole entry Q126A) above, with A126Q, N276A counted along it
T1 sequence (P30874 whole entry Y302A): as the sequence (P30874 whole entry Q126A) above, with A126Q, Y302A counted along it
T10 sequence (P30874 whole entry): as the sequence (P30874 whole entry Q126A) above, with A126Q counted along it
Chain of wild-type SSTR2 (pcDNA3.1, functional assays) (human) (P30874 whole entry): as the sequence (P30874 whole entry Q126A) above, with A126Q counted along it
T3 sequence (P30874 whole entry F272A): as the sequence (P30874 whole entry Q126A) above, with A126Q, F272A counted along it
T9 sequence (P30874 whole entry F294S): as the sequence (P30874 whole entry Q126A) above, with A126Q, F294S counted along it
T11 sequence (P30874 1-359): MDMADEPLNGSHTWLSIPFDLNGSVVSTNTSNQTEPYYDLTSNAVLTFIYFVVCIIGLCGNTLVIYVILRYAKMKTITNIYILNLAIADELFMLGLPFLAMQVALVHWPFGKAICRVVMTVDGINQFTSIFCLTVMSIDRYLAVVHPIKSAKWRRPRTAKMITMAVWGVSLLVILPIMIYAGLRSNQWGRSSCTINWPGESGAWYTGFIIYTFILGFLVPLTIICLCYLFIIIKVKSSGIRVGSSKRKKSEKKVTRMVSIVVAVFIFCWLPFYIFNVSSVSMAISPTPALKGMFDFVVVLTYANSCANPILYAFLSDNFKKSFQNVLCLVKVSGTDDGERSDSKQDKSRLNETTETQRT
Chain of SSTR2-Q102^2.63 substituted with alanine (human) (P30874 whole entry Q102A): as the sequence (P30874 whole entry Q126A) above, with Q102A, A126Q counted along it

Q: What does the source list for CC(C)[C@@H]1NC(=O)[C@H](CCCCN)NC(=O)[C@@H](Cc2c[nH]c3ccccc23)NC(=O)[C@H](Cc2ccc(O)cc2)NC(=O)[C@@H](NC(=O)[C@H](N)Cc2ccc3ccccc3c2)CSSC[C@@H](C(=O)N[C@H](C(N)=O)[C@@H](C)O)NC1=O [Lanreotide]?
A: half-life [1]: 1 h; Emax (SSTR2 Y302A): 14 ± 2.2%; Emax (SSTR2 F208A): 27.9 ± 4%; Emax (SSTR2 F272A): 12.4 ± 1.1%; Emax (SSTR2-Q126A): 25.2 ± 1.8%; EC50 (SSTR2-Q102S): 0.501 µM; Effect of mutation on EC50 (SSTR2-Q102S; SSTR2-Q102S versus wild-type SSTR2): highly attenuated EC50; Emax (SSTR2-Q102S): 54.8 ± 1.6%; EC50 (SSTR2 Q102A): 0.398 µM; Emax (SSTR2 Q102A): 56.1 ± 4.2%; Emax (SSTR2 N276A): 13.8 ± 1.6%; Emax (SSTR2 D122A): 11.7 ± 4.3%; Emax (SSTR2 F294S): 11.4 ± 0.8%; EC50 (SSTR2 (wild-type)): 0.0501 µM

Q: For C[C@@H](O)[C@@H]1NC(=O)[C@H](CCCCN)NC(=O)[C@@H](Cc2c[nH]c3ccccc23)NC(=O)[C@H](Cc2ccccc2)NC(=O)[C@@H](NC(=O)[C@H](N)Cc2ccccc2)CSSC[C@@H](C(=O)N[C@H](CO)[C@@H](C)O)NC1=O [Octreotide], which half-life [1] is on record?
A: 2 h

Q: What about the Emax (SSTR2 Y302A; Y302A mutant, percentage of wild-type SSTR2 response) of the same compound?
A: 13.7 ± 3.2%

Q: And the Emax (SSTR2 F208A; F208A mutant, percentage of wild-type SSTR2 response)?
A: 98.7 ± 6.9%

Q: What about the Emax (SSTR2-Q126A; Q126A mutant, percentage of wild-type SSTR2 response) of the same compound?
A: 83.5 ± 5.9%

Q: What about the Emax (SSTR2(1-359)-Largebit) of the same compound?
A: 82.6 ± 7.4%

Q: And the Emax (SSTR2-Q102S; Q102S mutant, percentage of wild-type SSTR2 response)?
A: 91.9 ± 6.5%

Q: What about the Emax (SSTR2 Q102A; Q102A mutant, percentage of wild-type SSTR2 response) of the same compound?
A: 104 ± 12.1%

Q: What about the Emax (SSTR2 N276A; N276A mutant, percentage of wild-type SSTR2 response) of the same compound?
A: 22.3 ± 5.4%

Q: And the Emax (SSTR2 D122A; D122A mutant, percentage of wild-type SSTR2 response)?
A: 5.6 ± 0.5%

Q: With C[C@H](N)C(=O)NCC(=O)N[C@H]1CSSC[C@@H](C(=O)O)NC(=O)[C@H](CO)NC(=O)[C@H]([C@@H](C)O)NC(=O)[C@H](Cc2ccccc2)NC(=O)[C@H]([C@@H](C)O)NC(=O)[C@H](CCCCN)NC(=O)[C@H](Cc2c[nH]c3ccccc23)NC(=O)[C@H](Cc2ccccc2)NC(=O)[C@H](Cc2ccccc2)NC(=O)[C@H](CC(N)=O)NC(=O)[C@H](CCCCN)NC1=O [SST14] as the compound, how does the binding affinity (SSTR1) read?
A: high binding affinity

Q: And the binding affinity (SSTR3)?
A: high binding affinity

Q: And the binding affinity (SSTR2)?
A: high binding affinity

Q: And the binding affinity (SSTR4)?
A: high binding affinity

Q: And the binding affinity (SSTR5)?
A: high binding affinity

Q: For octreotide (peptide), which EC50 of Ca^2+ mobilization (293 T cells with Gqi9) [2] is on record?
A: 1.3 µM

Q: What about the EC50 of Ca^2+ mobilization (293 T cells with Gqi9) [3] of the same compound?
A: 0.02 µM

Q: What about the EC50 of Ca^2+ mobilization (293 T cells with Gqi9) (SSTR2-Q126A (human)) of the same compound?
A: 0.1 µM

From publication PMC9122944, “Structural insights into the activation of somatostatin receptor 2 by cyclic SST analogues” (Cell Discovery, 2022)
